In patent US20030203908A1, “Dihydrofolate reductase inhibitors” (priority 2000, published 2003):
Counter-ions that a name gives are not always drawn. Like-named read-outs stand apart in the source and are kept apart here.

Experiments:
[1] = biological target: T1, wild-type (wt) DHFR from Plasmodium falciparum (Plasmodium falciparum, UniProt P13922, N108S/R59C); test: Inhibition of wild-type pfDHFR (spectrophotometric, Ki); assay type: biochemical; details: Ki(wt) nM;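 note: Affinity-purified enzyme, initial reaction rates measured across a range of inhibitor concentrations, Ki obtained by nonlinear least-squares fitting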
T1 construct: The Dihydrofolate Reductase Domain of Plasmodium falciparum Thymidylate Synthase-Dihydrofolate Reductase; made in house
Description: (§1) For determination of the Ki values of a number of synthesized analogues, the assay reactions were initiated with affinity-purified enzyme (^˜0.005-0.01 U ml^−1), and the initial velocities in the presence of varying concentrations of inhibitors were analysed by non-linear least square fit using Kaleidagraph™ software.

[2] = biological target: T2, A16V.S108T mutant (mut) of DHFR from Plasmodium falciparum (Plasmodium falciparum, UniProt A7UD81, A16V/S108T); test: biochemical
T2 construct: The Dihydrofolate Reductase Domain of Plasmodium falciparum Thymidylate Synthase-Dihydrofolate Reductase; made in house
Description: as §1

[3] = tested on: A16V.S108T mutant (mut) of DHFR from Plasmodium falciparum; test: biochemical; details: resistance factor
Description: as §1

[4] = tested on: wild-type (TM4/8.2) strain of P. falciparum; test: microbe, parasite or virus in culture; assay type: cell-based, Plasmodium falciparum; details: Plasmodium falciparum; wild-type strain TM4/8.2
Description: Mol. Biochem. Parasitol. […] Science, 1976, 193, 673-675]. In vitro antimalarial activity was determined by using [^3H]-hypoxanthine incorporation method [Desjardins, R. E.; Canfield, C. J.; Haynes, J. D.; Chulay, J. D. Quantitative assessment of antimalarial activity in vitro by a semiautomated microdilution technique. Antimicrob Agents Chemother. 1979, 16, 710-718]. The drugs were initially dissolved in DMSO and diluted with the culture media. Aliquots (25 μl) of drug solution of different concentrations was placed in 96-well plate together with 200 μl of 1.5% cell suspension of parasitized erythrocytes containing 1-2% parasitemia. Final concentration of DMSO was 0.1% where there was no effect on the parasite growth. The mixtures were incubated in a 3% CO2 incubator at 37° C. After 24 h of incubation, 25 μl (0.25 μCi) of [^3H]-hypoxanthine were added to each well. The mixtures were further incubated under the same condition for 18-24 h. DNA of parasites was harvested onto glass filter paper (Unifilter, Packard, USA). The filters were dried and liquid scintillation fluid was added for radioactivity measurement in a 6-probe liquid scintillation-counter (Packard, USA).

[5] = biological target: T3, DHFR-TS from Trypanosoma cruzi (Trypanosoma cruzi, UniProt Q27793); test: Inhibition of T. cruzi DHFR-TS (I50-derived Ki);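 for all read-outs here: enzymes were recombinant T. cruzi DHFR-TS and human DHFR, both expressed in E. coli and purified on a methotrexate affinity column, with dihydrofolate and NADPH as substrates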; assay type: biochemical; details: for Selectivity: human Ki / T. cruzi Ki
T3 construct: pET 11c with the insertion of the complete ORF of the gene tc-dhfrts; made in house; host or cells: E. coli BL21 (DE3)
Description: DHFR activity was measured spectrophotometrically by monitoring the decrease in absorbance at 340 mm.
Inhibition of dihydrofolate reductases by 1,2-dihydro-1,3,5 triazines was analysed with T. cruzi and human DHFR.
DHFR assays contained 30 mM dihydrofolate, 0.1 mM NADPH, 50 mM TES buffer pH 7, 75 mM 2-mercaptoethanol and specified amounts of inhibitors. The reaction was initiated by addition of 2.8 or 2.3 units of T. cruzi and human, respectively, and monitored at 340 nm.
Selective inhibition of dihydrofolate reductase by 1,2-dihydro-1,3,5-triazines was analysed with T. cruzi and human DHFR. DHFR assays contained 30 μM dihydrofolate, 0.1 mM NADPH, 50 mM TES buffer pH 7, 75 mM β-mercaptoethanol and specified amounts of inhibitors. The reaction was initiated by addition of 2.8 or 2.3 units of T. cruzi and human enzyme, respectively, and monitored at 340 nm.
KiI 50=[I]0.5/((1+[S])/Km)

human DHFR [6] = biological target: T4, human DHFR (Homo sapiens, UniProt P00374); test: Inhibition of human DHFR (I50-derived Ki); assay type: biochemical; details: human DHFR;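 note: recombinant human DHFR expressed in E. coli and purified by methotrexate affinity chromatography, enzyme activity followed spectrophotometrically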
T4 construct: made in house; host or cells: E. coli M15
T4 sequence (P00374 1-187): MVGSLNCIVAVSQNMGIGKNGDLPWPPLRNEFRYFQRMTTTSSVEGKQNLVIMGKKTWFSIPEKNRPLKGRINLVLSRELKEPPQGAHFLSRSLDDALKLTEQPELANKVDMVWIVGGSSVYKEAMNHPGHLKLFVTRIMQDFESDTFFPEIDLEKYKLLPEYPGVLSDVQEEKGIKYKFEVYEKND

human DHFR [7] = test: Inhibition of human DHFR (I50-derived Ki); assay type: biochemical;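 note: recombinant human DHFR expressed in E. coli and purified by methotrexate affinity chromatography, enzyme activity followed spectrophotometrically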

T3 sequence (Q27793 whole entry): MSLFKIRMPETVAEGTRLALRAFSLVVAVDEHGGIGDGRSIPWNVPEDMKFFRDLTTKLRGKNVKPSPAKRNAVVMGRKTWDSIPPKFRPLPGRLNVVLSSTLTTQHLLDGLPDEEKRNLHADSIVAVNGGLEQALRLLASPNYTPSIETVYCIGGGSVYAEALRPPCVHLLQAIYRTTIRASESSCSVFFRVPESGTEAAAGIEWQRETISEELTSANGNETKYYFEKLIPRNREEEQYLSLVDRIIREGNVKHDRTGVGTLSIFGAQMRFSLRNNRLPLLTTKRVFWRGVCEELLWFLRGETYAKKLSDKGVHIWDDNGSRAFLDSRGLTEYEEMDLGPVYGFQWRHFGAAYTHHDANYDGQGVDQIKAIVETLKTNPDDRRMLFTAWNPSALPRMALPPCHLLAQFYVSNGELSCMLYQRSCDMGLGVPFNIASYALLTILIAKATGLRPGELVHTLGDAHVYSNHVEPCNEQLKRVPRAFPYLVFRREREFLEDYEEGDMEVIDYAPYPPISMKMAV
T2 sequence (A7UD81 1-231 A16V/S108T): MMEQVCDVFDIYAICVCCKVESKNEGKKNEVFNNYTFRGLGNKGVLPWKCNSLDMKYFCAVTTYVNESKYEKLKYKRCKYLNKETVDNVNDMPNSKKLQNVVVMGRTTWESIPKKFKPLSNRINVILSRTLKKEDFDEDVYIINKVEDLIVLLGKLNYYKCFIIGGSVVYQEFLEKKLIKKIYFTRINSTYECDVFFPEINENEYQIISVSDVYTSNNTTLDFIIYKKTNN
T1 sequence (P13922 10-228 R59C/N108S): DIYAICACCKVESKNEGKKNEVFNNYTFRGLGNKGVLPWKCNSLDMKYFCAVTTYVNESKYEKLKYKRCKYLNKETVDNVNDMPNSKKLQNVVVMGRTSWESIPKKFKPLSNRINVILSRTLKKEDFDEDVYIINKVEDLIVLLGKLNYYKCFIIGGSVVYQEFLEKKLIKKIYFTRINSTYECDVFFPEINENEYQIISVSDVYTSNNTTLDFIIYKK

| SMILES | Ki [1] [nM] | Ki [2] [nM] | Ki(mut)/Ki(wt) [3] | IC50 [4] [nM] | Ki [5] [nM] | Selectivity [5] | Ki (human DHFR [6]; Human Ki (I50)(nM)) [nM] | Ki (human)/Ki (T. cruzi) (human DHFR [7]) | Ki (human DHFR [6]; read-out: Human Ki (I50)) [nM] | Ki (human)/Ki (P. falc. mut) (human DHFR [7]) | Ki (human)/Ki (P. falc. wt) (human DHFR [7]) |
| --- | --- | --- | --- | --- | --- | --- | --- | --- | --- | --- | --- |
| COc1cc(C2N=C(N)N=C(N)N2c2cccc(Cl)c2)cc(OC)c1OC (stereo not drawn) [(Ib) R2=3,4,5-trimethoxyphenyl] | 960 ± 79 | 1010 ± 27 | 1.0 | > 50000 | – | – | – | – | – | – | – |
| COc1ccc(C2N=C(N)N=C(N)N2c2ccc(F)cc2)cc1 (stereo not drawn) [R2=4-MeOC6H4, X=F, Y=H] | – | – | – | – | 61 | 441 | 26900 | 441 | – | – | – |
| NC1=NC(c2cccc(Oc3ccccc3)c2)N(c2ccc(Cl)c(Cl)c2)C(N)=N1 (stereo not drawn) [(Ic) R2=3-phenoxyphenyl] | 1.9 ± 0.3 | 5.2 ± 0.6 | 2.7 | 330 | – | – | – | – | – | – | – |
| NC1=NC(c2ccc(O)cc2)N(c2ccc(Cl)cc2)C(N)=N1 (stereo not drawn) [(Ia) R2=p-hydroxyphenyl] | 11.3 ± 1.7 | 98 ± 10 | 8.6 | – | – | – | – | – | – | – | – |
| NC1=NC(c2cccc(O)c2)N(c2cccc(Cl)c2)C(N)=N1 (stereo not drawn) [(Ib) R2=3-hydroxyphenyl] | 27.9 ± 4.5 | 19.7 ± 2.4 | 0.7 | 551 | – | – | – | – | – | – | – |
| COc1cccc(C2N=C(N)N=C(N)N2c2ccc(Cl)cc2)c1 (stereo not drawn) [(Ia) R2=m-methoxyphenyl] | 10.4 ± 1.4 | 62.8 ± 2.4 | 6.0 | 577 | – | – | – | – | – | – | – |
| NC1=NC(c2cccc(Oc3cc(Cl)cc(Cl)c3)c2)N(c2cccc(Cl)c2)C(N)=N1 (stereo not drawn) [(Ib) R2=3-(3,5-dichlorophenoxy)phenyl] | 1.8 ± 0.6 | 4.7 ± 0.4 | 2.6 | 5470 | – | – | – | – | – | – | – |
| COc1ccc(C2N=C(N)N=C(N)N2c2cccc(Cl)c2)cc1 (stereo not drawn) [(Ib) R2=4-methoxyphenyl] | 21.8 ± 1 | 12.5 ± 0.9 | 0.6 | 2560 | – | – | – | – | – | – | – |
| COc1cc(OC)cc(C2N=C(N)N=C(N)N2c2ccc(Cl)cc2)c1 (stereo not drawn) [(Ia) R2=3,5-dimethoxyphenyl] | 38.3 ± 8 | 100 ± 7 | 2.6 | 3250 | 200 | 129 | 25800 | – | – | – | – |
| Cl.NC1=NCN(c2ccccc2)C(N)=N1 [R=H, X=H, 1-(phenyl)-4,6-diamino-1,2-dihydro-1,3,5-triazine hydrochloride] | 329 ± 27 | 585 ± 70 | 1.8 | – | – | – | – | – | 1430 | 2.44 | 4.35 |
| NC1=NC(c2ccc(OCc3cc(F)cc(F)c3)cc2)N(c2cccc(Cl)c2)C(N)=N1 (stereo not drawn) [(Ib) R2=4-(3,5-difluorobenzyloxy)phenyl] | 4.4 ± 0.4 | 7.4 ± 0.7 | 1.7 | 3780 | – | – | – | – | – | – | – |
| NC1=NC(c2ccccc2)N(c2ccc(Cl)c(Cl)c2)C(N)=N1 (stereo not drawn) [(Ic) R2=Ph, 1-(3′,4′-Dichlorophenyl)-2-phenyl-4,6-diamino-1,2-dihydro-1,3,5-triazine hydrochloride] | – | – | – | 26 | – | – | – | – | – | – | – |
| NC1=NC(c2cccc(OCc3ccccc3)c2)N(c2cccc(OCc3ccccc3)c2)C(N)=N1 (stereo not drawn) [R2=3-BnOC6H4, X=H, Y=BnO, 1-m-benzyloxyphenyl-2-m-benzyloxyphenyl-4,6-diamino-1,2-dihydro-1,3,5-triazine] | 4.3 ± 0.2 | 7.2 ± 1 | 1.7 | – | 128 | 16.6 | 2130 | – | – | – | – |
| NC1=NCN(c2ccc(Br)cc2)C(N)=N1 [R2=H, X=Br, Y=H] | – | – | – | – | 100 | 4.8 | 480 | – | – | – | – |
| Cl.NC1=NC(c2ccccc2)N(c2cccc(Cl)c2)C(N)=N1 (stereo not drawn) [(Ib) R2=phenyl, 1-(3′-Chlorophenyl)-2-phenyl-4,6-diamino-1,2-dihydro-1,3,5-triazine hydrochloride] | 11.7 ± 2.5 | 10 ± 7 | 0.9 | 565 | – | – | – | – | – | – | – |
| COc1ccc(C2N=C(N)N=C(N)N2c2cccc(Cl)c2)cc1OC (stereo not drawn) [(Ib) R2=3,4-dimethoxyphenyl] | 27.2 ± 2 | 164 ± 6 | 6.0 | 6820 | – | – | – | – | – | – | – |
